Reference: publication PMC10809502, “Application of a new MDCKII-MDR1 cell model to measure the extent of drug distribution in vitro at equilibrium for prediction of in vivo unbound brain-to-plasma drug distribution” (Fluids and Barriers of the CNS, 2024)
Like-named read-outs stand apart in the source and are kept apart here.

Tests used:
P-gp (human MDR1) [1] = assay: in vitro; conditions: dog
[2] = cited from earlier work
[3] = molecular target: T1, Bovine Serum Albumin (BSA) (Bos taurus, UniProt P02769); assay: Fraction unbound in 35 μM BSA, equilibrium dialysis; conditions: for fraction unbound at 5 h, 1 μM: bovine; for Predicted fu (%) BSA 35 μM (D = 20): calculated with Eq. 2 from fu measured in 100% matrices (ref 20), dilution factor 20
T1 sequence (P02769 25-607): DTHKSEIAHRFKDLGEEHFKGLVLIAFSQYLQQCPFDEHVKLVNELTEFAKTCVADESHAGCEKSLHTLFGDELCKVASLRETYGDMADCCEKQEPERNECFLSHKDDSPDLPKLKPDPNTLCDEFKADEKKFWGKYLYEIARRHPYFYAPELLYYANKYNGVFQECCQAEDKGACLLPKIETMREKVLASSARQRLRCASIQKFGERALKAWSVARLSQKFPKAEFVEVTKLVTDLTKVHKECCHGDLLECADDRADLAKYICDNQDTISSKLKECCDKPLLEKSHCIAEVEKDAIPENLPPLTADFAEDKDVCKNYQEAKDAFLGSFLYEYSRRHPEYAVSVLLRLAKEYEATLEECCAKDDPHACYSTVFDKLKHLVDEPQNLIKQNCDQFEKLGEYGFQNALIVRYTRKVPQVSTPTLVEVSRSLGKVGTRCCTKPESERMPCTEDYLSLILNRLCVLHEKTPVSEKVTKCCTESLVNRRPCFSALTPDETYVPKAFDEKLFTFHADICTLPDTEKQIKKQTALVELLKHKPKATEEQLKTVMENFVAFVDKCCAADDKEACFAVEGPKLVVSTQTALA

[4] = Fraction unbound in 20-fold diluted brain homogenate, equilibrium dialysis; conditions: for fraction unbound at 5 h, 1 μM: Göttingen, minipig, pH 7.4; for Predicted fu (%) Brain (D = 20): calculated with Eq. 2 from fu measured in 100% matrices (ref 20), dilution factor 20
P-gp (human MDR1) [5] = assay: Equilibrium distribution study (in vitro Kp,brain / Kp,uu,brain) across MDCKII-MDR1 cells, BSA apical, brain homogenate basolateral, Uni-L and Bi-L; conditions: dog; for Kp at 29 h, 1 μM: brain homogenate/BSA ratio
[6] = brain homogenate
[7] = molecular target: T1, Bovine Serum Albumin (BSA); conditions: isolated protein
in vitro = conditions: Göttingen, minipig, brain homogenate, pH 7.4
[8] = molecular target: T1, Bovine Serum Albumin (BSA); assay: in vitro; conditions: isolated protein
P-gp (human MDR1) [9] = assay: in vitro; conditions: dog; remark: listed apart in the source
[10] = molecular target: T1, Bovine Serum Albumin (BSA); assay: Fraction unbound in 700 μM BSA in phosphate buffer; format: in vitro ADME; parameters: BSA (purity > 98%) was obtained from Beijing SeaskyBio Technology Co. Ltd; purchased Beijing SeaskyBio Technology Co. Ltd. BSAS (Lot 541); conditions: read-out: fu, 700 μM BSA
MDCKII-MDR1 cell line = test system: MDCKII-MDR1 cell line; parameters: method as in PMID 34756975, PMID 15236458; conditions: cited from earlier work
[11] = 20-fold diluted brain homogenate
[12] = MDCK-MDR1, pH 7.5, in vitro determined Kp,brain Bi-L, Bi-L (compound loaded both sides), 29 h
[13] = MDCK-MDR1, pH 7.5, in vitro determined Kp,brain Uni-L, Uni-L (compound loaded apically in BSA), 29 h
[14] = pH 7.5, Recovery Bi-L, mass balance Eq. 7, Bi-L, 29 h, % printed
[15] = pH 7.5, Recovery Uni-L, mass balance Eq. 6, Uni-L, 29 h, % printed
[16] = pH 7.5, assay recovery, equilibrium distribution experiment, setup (Uni-L/Bi-L) not given
[17] = MDCK-MDR1, pH 7.4, with an inhibitor present (name and concentration not stated)

SMILES | Papp B→A at 60 min, 0.5 μM (P-gp (human MDR1) [1]; MDCK-MDR1, pH 7.4) [×10⁻⁶ cm/s] | efflux ratio at 60 min, 0.5 μM (P-gp (human MDR1) [1]; MDCK-MDR1, pH 7.4) | Kp,uu,brain in vivo ([2]; Göttingen minipig) | fraction unbound at 5 h, 1 μM ([3]; 35 μM BSA) | Predicted fu (%) BSA 35 μM (D = 20) [3] [%] | fraction unbound at 5 h, 1 μM [4, 11] | Predicted fu (%) Brain (D = 20) [4] [%] | Kp at 29 h, 1 μM (P-gp (human MDR1) [5]; [12]) | Kp at 29 h, 1 μM (P-gp (human MDR1) [5]; [13]) | recovery at 29 h, 1 μM (P-gp (human MDR1) [5]; [14]) [%] | recovery at 29 h, 1 μM (P-gp (human MDR1) [5]; [15]) [%] | also measured
O=C(c1ccc(F)cc1)C1CCN(CCn2c(=S)[nH]c3ccccc3c2=O)CC1 [Altanserin] | 3.4 ± 0.3 | 1.1 | 0.85 | 0.451 ± 0.035 | 26.8 | 0.229 ± 0.014 | 22.1 | 1.49 | 1.48 | 17 | 18 | recovery at 29 h, 1 μM (P-gp (human MDR1) [5]; [16]): ~20%
Cc1cc(=O)n(-c2ccccc2)n1C [Antipyrine, antipyrine] | 48 ± 3 | 1.2 |  |  |  |  |  |  |  |  |  | Predicted fu (%) Brain (D = 20) [6]: > 100%; Predicted fu (%) BSA 35 μM (D = 20) [7]: 99.9%; Kp,uu,brain in Vitro Uni-L (Det. fu) (MDCKII-MDR1 cells; dog, 29 h, 1 μM, pH 7.5): 1.05; Kp,uu,brain in Vitro Uni-L (Pre.fu) (MDCKII-MDR1 cells; dog, 29 h, 1 μM, pH 7.5): 1.24; fraction unbound at 5 h, 1 μM (in vitro): 0.843 ± 0.042; fraction unbound at 5 h, 1 μM [8]: > 1; Kp at 29 h, 1 μM (P-gp (human MDR1) [9]; MDCK-MDR1, pH 7.5, in vitro determined Kp,brain Bi-L): 1.2; Kp at 29 h, 1 μM (P-gp (human MDR1) [9]; MDCK-MDR1, pH 7.5, in vitro determined Kp,brain Uni-L): 1.2; recovery at 29 h, 1 μM (P-gp (human MDR1) [9]; pH 7.5, Recovery Bi-L): 77%; recovery at 29 h, 1 μM (P-gp (human MDR1) [9]; pH 7.5, Recovery Uni-L): 77%; Kp,uu,brain in vivo ([2]; minipig, in vivo): 0.80
O=C1CC2(CCCC2)CC(=O)N1CCCCN1CCN(c2ncccn2)CC1 [Buspirone, buspirone] | 20 ± 3 |  |  |  |  |  |  |  |  | 71 | 76 | 
CN/C(=N/CCSCc1nc[nH]c1C)NC#N [Cimetidine, cimetidine] | 2.5 ± 0.2 |  | 0.02 | > 1 | 99.2 | 0.938 ± 0.05 | 95.6 | 0.6 | 0.19 | 78 | 73 | Papp A→B at 60 min, 0.5 μM (P-gp (human MDR1) [1]; MDCK-MDR1, pH 7.4): < 1 ×10⁻⁶ cm/s
CN(C)CCCC1(c2ccc(F)cc2)OCc2cc(C#N)ccc21 (stereo not drawn) [Citalopram, citalopram] | 7.7 ± 0.3 | 1.7 | 0.90 | 0.973 ± 0.027 | 96.0 | 0.513 ± 0.066 | 47.9 | 1.5 | 1.5 | 67 | 73 | 
CN(C)CCC=C1c2ccccc2COc2ccccc21 [Doxepin, doxepin] | 2.2 ± 0.1 | 1.1 |  | 0.922 ± 0.029 | 87.1 | 0.248 ± 0.05 | 33.0 | 2.2 | 2.2 | 54 | 59 | Papp A→B at 60 min, 0.5 μM (P-gp (human MDR1) [1]; MDCK-MDR1, pH 7.4): 2 ± 0.1 ×10⁻⁶ cm/s; recovery at 60 min, 0.5 μM (P-gp (human MDR1) [1]; MDCKII-MDR1 cell monolayers (transfected with human MDR1), pH 7.4): ~50%; recovery at 29 h, 1 μM (P-gp (human MDR1) [5]; [16]): ~50%
CNCCC(Oc1ccc(C(F)(F)F)cc1)c1ccccc1 (stereo not drawn) [Fluoxetine, fluoxetine] |  |  |  | 0.66 ± 0.032 | 70.6 | 0.052 ± 0.005 | 5.7 |  |  |  |  | 
NCC1(CC(=O)O)CCCCC1 [Gabapentin, gabapentin] | 1.6 ± 0.2 | 0.5 | 0.13 |  | 99.8 |  | 93.4 | 0.9 | 0.11 | 86 | 85 | fraction unbound at 5 h, 1 μM ([3]; isolated protein): 0.984 ± 0.062; fraction unbound at 5 h, 1 μM ([4]; brain homogenate): 0.946 ± 0.015
COc1ccc2c(c1)c(CC(=O)O)c(C)n2C(=O)c1ccc(Cl)cc1 [Indomethacin, indomethacin] | 2.7 ± 0.3 |  | 0.13 |  |  | 0.358 ± 0.08 | 42.8 | 0.78 | 0.88 | 69 | 73 | Kp uu at 29 h, 1 μM (P-gp (human MDR1) [5]; MDCK-MDR1, pH 7.5): ≥ 1
CCN(CC)CCNC(=O)c1cc(Cl)c(N)cc1OC [Metoclopramide, metoclopramide] | 49 ± 3 | 2 |  | > 1 | 98.8 | 0.878 ± 0.038 | 90.7 | 0.96 | 1 | 66 | 66 | fraction unbound at 5 h, 1 μM [10]: 0.904
Clc1ccc2c(c1)N=C(N1CCNCC1)c1ccccc1N2 [N-desmethylclozapine] | 4.4 ± 0.3 | 2.1 | 0.71 | 0.892 ± 0.029 | 82.1 | 0.131 ± 0.006 | 13.9 | 4.2 | 4.2 | 53 | 62 | Papp A→B at 60 min, 0.5 μM (P-gp (human MDR1) [1]; [17]): 3.6 ×10⁻⁶ cm/s; Papp B→A at 60 min, 0.5 μM (P-gp (human MDR1) [1]; [17]): 2.9 ×10⁻⁶ cm/s; classification of brain penetration in vivo ([2]; Göttingen minipig Kp,uu,brain): unrestricted (unrestricted brain penetration with Kp,uu,brain > 0.7); recovery at 29 h, 1 μM (P-gp (human MDR1) [5]; [16]): ~50%
CC(C)NCC(O)COc1cccc2ccccc12 (stereo not drawn) [Propranolol, propranolol] | 3.7 ± 0.1 | 0.8 | 0.76 | 0.897 ± 0.018 | 86.8 | 0.35 ± 0.012 | 37.4 | 1.9 | 2.2 | 21 | 25 | recovery at 29 h, 1 μM (P-gp (human MDR1) [5]; [16]): ~20%
COc1ccccc1N1CCN(CCN(C(=O)C2CCCCC2)c2ccccn2)CC1 [Way-100635] |  |  | 0.40 |  | 87.1 |  | 71.8 |  |  |  |  | Kp,uu,brain in Vitro Uni-L (Det. fu) (MDCKII-MDR1 cells): 1.09; Kp,uu,brain in Vitro Uni-L (Pre.fu) (MDCKII-MDR1 cells): 0.96; assay recovery, equilibrium distribution experiment (MDCKII-MDR1 cells): around 50%; in vitro Kp,uu,brain (MDCKII-MDR1 cells; dog, MDCK-MDR1): ~ 1; Determined fu (%) BSA 35 μM (D = 20) ([3]; 35 μM BSA, 1 μM, 5 h, 37 ℃, Eq. 1, mean ± SD N=3): 80.2 ± 0.9%; Determined fu (%) Brain (D = 20) ([4]; 20-fold diluted brain homogenate, 1 μM, 5 h, 37 ℃, Eq. 1, mean ± SD N=3): 74.8 ± 8.0%
OC[C@@H](O)[C@@H](O)[C@H](O)[C@H](O)CO [mannitol] |  |  |  |  |  |  |  |  |  |  |  | mannitol flux (MDCKII-MDR1 cell line): 1–7 10^–7 cm/s
